# Measurements taken from the supplement of paper PMC10307832.
# Columns and labels:
# Assay in all cases: relative viability (nuclei count vs DMSO), 5 days (fraction); higher = more cells survive
# A-427 = test system: A-427
# Summary of the method: (§1)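 Values are medians from duplicate plates. Each reflects relative viability, defined as the nuclei count of treated wells over that of vehicle wells. Lung cancer cell lines in 1536-well plates were pin-tool dosed one day after seeding with one drug alone or with a fixed anchor-drug dose plus five library-drug doses (not always all listed) in √10 steps, then fixed, stained and imaged at 4× after 5 days.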
# BEN = test system: BEN
# Summary of the method: as §1
# COR-L23 = test system: COR-L23
# Summary of the method: as §1
# EKVX = test system: EKVX
# Summary of the method: as §1
# EMC-BAC-2 = test system: EMC-BAC-2
# Summary of the method: as §1
# EPLC-272H = test system: EPLC-272H
# Summary of the method: as §1
# HCC-44 = test system: HCC-44
# Summary of the method: as §1
# LK-2 = test system: LK-2
# Summary of the method: as §1
# LXF-289 = test system: LXF-289
# Summary of the method: as §1
# NCI-H1651 = test system: NCI-H1651
# Summary of the method: as §1
# NCI-H1793 = test system: NCI-H1793
# Summary of the method: as §1
# NCI-H1915 = test system: NCI-H1915
# Summary of the method: as §1
# NCI-H2087 = test system: NCI-H2087
# Summary of the method: as §1
# NCI-H2228 = test system: NCI-H2228
# Summary of the method: as §1
# NCI-H2347 = test system: NCI-H2347
# Summary of the method: as §1
# NCI-H358 = test system: NCI-H358
# Summary of the method: as §1
# NCI-H460 = test system: NCI-H460
# Summary of the method: as §1
# NCI-H520 = test system: NCI-H520
# Summary of the method: as §1
# NCI-H661 = test system: NCI-H661
# Summary of the method: as §1
# SW 1573 = test system: SW 1573
# Summary of the method: as §1
structure (smiles),measurement,setting,value
COCC1(CO)C(=O)C2CCN1CC2 (stereo not given) [PRIMA-1MET] + C[C@]1(O)C[C@@H](c2nc(-c3ccc4ccc(-c5ccccc5)nc4c3)c3c(N)nccn32)C1 [Linsitinib] (partner 1 µM),relative viability,A-427; first compound 0.2 µM,1.19
same,relative viability,A-427; first compound 0.6325 µM,0.703
same,relative viability,A-427; first compound 2 µM,0.953
same,relative viability,A-427; first compound 6.325 µM,1.12
same,relative viability,A-427; first compound 20 µM,1.08
same,relative viability,BEN; first compound 0.2 µM,1.04
same,relative viability,BEN; first compound 0.6325 µM,0.765
same,relative viability,BEN; first compound 6.325 µM,1.08
same,relative viability,BEN; first compound 20 µM,0.85
same,relative viability,COR-L23; first compound 0.2 µM,0.94
same,relative viability,COR-L23; first compound 0.6325 µM,0.942
same,relative viability,COR-L23; first compound 2 µM,0.978
same,relative viability,COR-L23; first compound 6.325 µM,0.873
same,relative viability,COR-L23; first compound 20 µM,0.0228
same,relative viability,EKVX; first compound 0.2 µM,0.999
same,relative viability,EKVX; first compound 0.6325 µM,0.912
same,relative viability,EKVX; first compound 2 µM,0.707
same,relative viability,EKVX; first compound 6.325 µM,1.03
same,relative viability,EKVX; first compound 20 µM,0.804
same,relative viability,EMC-BAC-2; first compound 0.2 µM,0.843
same,relative viability,EMC-BAC-2; first compound 0.6325 µM,0.822
same,relative viability,EMC-BAC-2; first compound 2 µM,0.784
same,relative viability,EMC-BAC-2; first compound 6.325 µM,0.821
same,relative viability,EMC-BAC-2; first compound 20 µM,0.817
same,relative viability,EPLC-272H; first compound 0.2 µM,1.26
same,relative viability,EPLC-272H; first compound 0.6325 µM,1.01
same,relative viability,EPLC-272H; first compound 2 µM,1.06
same,relative viability,EPLC-272H; first compound 6.325 µM,1.2
same,relative viability,EPLC-272H; first compound 20 µM,0.973
same,relative viability,HCC-44; first compound 0.2 µM,0.746
same,relative viability,HCC-44; first compound 0.6325 µM,0.528
same,relative viability,HCC-44; first compound 2 µM,0.673
same,relative viability,HCC-44; first compound 6.325 µM,0.706
same,relative viability,HCC-44; first compound 20 µM,0.625
same,relative viability,LK-2; first compound 0.2 µM,0.624
same,relative viability,LK-2; first compound 0.6325 µM,0.554
same,relative viability,LK-2; first compound 2 µM,0.237
same,relative viability,LK-2; first compound 6.325 µM,0.224
same,relative viability,LK-2; first compound 20 µM,0.103
same,relative viability,LXF-289; first compound 0.2 µM,1.02
same,relative viability,LXF-289; first compound 0.6325 µM,0.958
same,relative viability,LXF-289; first compound 2 µM,1.04
same,relative viability,LXF-289; first compound 6.325 µM,0.999
same,relative viability,LXF-289; first compound 20 µM,0.89
same,relative viability,NCI-H1651; first compound 0.2 µM,1.13
same,relative viability,NCI-H1651; first compound 0.6325 µM,0.981
same,relative viability,NCI-H1651; first compound 2 µM,0.907
same,relative viability,NCI-H1651; first compound 6.325 µM,0.955
same,relative viability,NCI-H1651; first compound 20 µM,0.839
same,relative viability,NCI-H1793; first compound 0.2 µM,0.878
same,relative viability,NCI-H1793; first compound 0.6325 µM,0.777
same,relative viability,NCI-H1793; first compound 6.325 µM,1.04
same,relative viability,NCI-H1793; first compound 20 µM,0.581
same,relative viability,NCI-H1915; first compound 0.2 µM,1.26
same,relative viability,NCI-H1915; first compound 0.6325 µM,0.933
same,relative viability,NCI-H1915; first compound 2 µM,1.03
same,relative viability,NCI-H1915; first compound 6.325 µM,1.11
same,relative viability,NCI-H1915; first compound 20 µM,1.08
same,relative viability,NCI-H2087; first compound 0.2 µM,1.07
same,relative viability,NCI-H2087; first compound 0.6325 µM,0.85
same,relative viability,NCI-H2087; first compound 2 µM,0.875
same,relative viability,NCI-H2087; first compound 6.325 µM,1.24
same,relative viability,NCI-H2087; first compound 20 µM,0.691
same,relative viability,NCI-H2228; first compound 0.2 µM,0.735
same,relative viability,NCI-H2228; first compound 0.6325 µM,0.552
same,relative viability,NCI-H2228; first compound 2 µM,0.602
same,relative viability,NCI-H2228; first compound 6.325 µM,0.61
same,relative viability,NCI-H2228; first compound 20 µM,0.046
same,relative viability,NCI-H2347; first compound 0.2 µM,1.02
same,relative viability,NCI-H2347; first compound 0.6325 µM,0.847
same,relative viability,NCI-H2347; first compound 2 µM,0.697
same,relative viability,NCI-H2347; first compound 6.325 µM,0.995
same,relative viability,NCI-H2347; first compound 20 µM,0.934
same,relative viability,NCI-H358; first compound 0.2 µM,0.97
same,relative viability,NCI-H358; first compound 0.6325 µM,0.399
same,relative viability,NCI-H358; first compound 6.325 µM,0.757
same,relative viability,NCI-H358; first compound 20 µM,0.0326
same,relative viability,NCI-H460; first compound 0.2 µM,1.08
same,relative viability,NCI-H460; first compound 0.6325 µM,0.545
same,relative viability,NCI-H460; first compound 2 µM,0.613
same,relative viability,NCI-H460; first compound 6.325 µM,0.0073
same,relative viability,NCI-H460; first compound 20 µM,0.0038
same,relative viability,NCI-H520; first compound 0.2 µM,1.05
same,relative viability,NCI-H520; first compound 0.6325 µM,1
same,relative viability,NCI-H520; first compound 6.325 µM,0.869
same,relative viability,NCI-H520; first compound 20 µM,0.0887
same,relative viability,NCI-H661; first compound 0.2 µM,0.561
same,relative viability,NCI-H661; first compound 0.6325 µM,0.507
same,relative viability,NCI-H661; first compound 6.325 µM,0.532
same,relative viability,NCI-H661; first compound 20 µM,0.283
same,relative viability,SW 1573; first compound 0.2 µM,0.779
same,relative viability,SW 1573; first compound 0.6325 µM,0.796
same,relative viability,SW 1573; first compound 2 µM,0.875
same,relative viability,SW 1573; first compound 6.325 µM,0.456
same,relative viability,SW 1573; first compound 20 µM,0.0414
